According to patent US20250230165A1, “HETEROCYCLIC COMPOUNDS FOR USE IN THE TREATMENT OF CANCER” (ARTIOS PHARMA LIMITED, priority 2021, published 2025):

Target: T1, Human Polθ polymerase domain (aa1820-2590) (Homo sapiens, UniProt O75417)
T1 construct: Human Polθ polymerase domain (aa1820-2590) was expressed in E. coli; made in house; host or cells: E. coli
T1 sequence (O75417 1820-2590): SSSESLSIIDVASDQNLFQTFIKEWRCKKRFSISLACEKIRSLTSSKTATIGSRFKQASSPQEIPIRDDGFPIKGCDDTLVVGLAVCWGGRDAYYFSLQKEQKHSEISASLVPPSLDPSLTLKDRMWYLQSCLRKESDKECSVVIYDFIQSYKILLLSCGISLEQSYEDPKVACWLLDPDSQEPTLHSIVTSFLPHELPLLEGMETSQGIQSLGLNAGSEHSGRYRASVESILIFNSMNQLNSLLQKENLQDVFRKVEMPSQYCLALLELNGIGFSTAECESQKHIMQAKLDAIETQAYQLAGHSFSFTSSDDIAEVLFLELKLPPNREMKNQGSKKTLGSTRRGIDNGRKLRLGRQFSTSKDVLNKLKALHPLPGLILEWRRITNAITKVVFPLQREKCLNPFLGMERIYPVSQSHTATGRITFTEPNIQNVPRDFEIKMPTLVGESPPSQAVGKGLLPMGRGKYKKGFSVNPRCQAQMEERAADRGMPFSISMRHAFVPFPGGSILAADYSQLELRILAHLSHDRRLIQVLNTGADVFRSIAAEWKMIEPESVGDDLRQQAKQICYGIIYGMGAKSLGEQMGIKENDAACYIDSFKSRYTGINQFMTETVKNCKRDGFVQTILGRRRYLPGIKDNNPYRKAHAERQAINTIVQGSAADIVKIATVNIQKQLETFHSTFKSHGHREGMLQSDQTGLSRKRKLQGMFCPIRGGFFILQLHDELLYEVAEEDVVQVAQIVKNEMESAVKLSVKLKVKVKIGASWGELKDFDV
Assay: Polθ Polymerase Domain Kinact/KI Assay (PicoGreen)
Assay type: biochemical
Settings: 0.8 nM Polθ, 100 nM DNA substrate, kobs vs [I] fit for 2-step covalent inhibitor
Procedure, shortened: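 Enzyme 0.8 nM, annealed DNA substrate 100 nM, […]; 25 mM Tris pH 7.5, 5% glycerol, 0.01% Triton X-100, 0.1 mg/ml BSA, 1 mM DTT, 1% DMSO. Quench with EDTA at timepoints to 60 min; PicoGreen read. kobs from time courses → Kinact/KI.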

C=C(CN(C)C)C(=O)N1CC[C@@H](COCCN2C[C@H]3CC(=O)N(c4cc(C(F)(F)F)cc(C)n4)[C@@H]3C(=O)N(C)c3cccc(C)c32)C1 [Example 180, (3aR,11aS)-5-(2-(((R)-1-(2-((dimeth-ylamino)methyl)-acryloyl)pyrrolidin-3-yl)methoxy)eth-yl)-6,10-dimethyl-1-(6-methyl-4-(trifluoromethyl)-pyridin-2-yl)-1,3a,4,5,10,11a-hexahydro-2H-benzo[b]pyrrolo [2,3-f][1,4]diazo-cine-2,11(3H)-dione]
Kinact/Kl: 2.72e+06 M⁻¹ s⁻¹

C=C(CN(C)C)C(=O)N1CC(OCCCN2C[C@H]3CC(=O)N(c4cc(C(F)(F)F)cc(C)n4)[C@@H]3C(=O)N(C)c3cccc(F)c32)C1 [Example 150, (3aR, 11aS)-5-(3-((1-(2-((dimethylamino)methyl)acryloyl)azetidin-3-yl)oxy)propyl)-6-fluoro-10-methyl-1-(6-methyl-4-(trifluoromethyl)pyridin-2-yl)-1,3a,4,5,10,11a-hexahydro-2H-benzo[b]pyrrolo[2,3-f][1,4]diazocine-2,11(3H)-dione]
Kinact/Kl: 3.35e+06 M⁻¹ s⁻¹

Cc1cc(C(F)(F)F)cc(N2C(=O)C[C@@H]3CN(CCCOC4CN(C(=O)/C=C/CN(C)C)C4)c4c(C)cccc4N(C)C(=O)[C@H]32)n1 [Example 169, (3aR,11aS)-5-(3-((1-((E)-4-(dimethylamino)but-2-enoyl)azetidin-3-yl)oxy)propyl)-6,10-dimethyl-1-(6-methyl-4-(trifluoromethyl)pyridin-2-yl)-1,3a,4,5,10,11a-hexahydro-2H-benzo[b]pyrrolo[2,3-f][1,4]diazocine-2,11(3H)-dione]
Kinact/Kl: 2.69e+06 M⁻¹ s⁻¹

C=CC(=O)N1CC(N2CCO[C@@H]3CN(CCN4C[C@H]5CC(=O)N(c6cc(C(F)(F)F)cc(C)n6)[C@@H]5C(=O)N(C)c5cccc(F)c54)C[C@H]32)C1 (single isomer, unassigned) [Example 22b]
Kinact/Kl: 460000 M⁻¹ s⁻¹

C=CC(=O)N1CC(N2CCN(CCN3C[C@H]4CC(=O)N(c5cc(C(F)(F)F)cc(C)n5)[C@@H]4C(=O)N(C)c4cccc(F)c43)CC2)C1 [Example 1, (3aR,11aS)-5-(2-(4-(1-Acryloylazetidin-3-yl)piperazin-1-yl)ethyl)-6-fluoro-10-methyl-1-(6-methyl-4-(trifluoromethyl)pyridin-2-yl)-1,3a,4,5,10,11a-hexahydro-2H-benzo[b]pyrrolo[2,3-f][1,4]diazocine-2,11(3H)-dione]
Kinact/Kl: 410000 M⁻¹ s⁻¹

Cc1cc(C(F)(F)F)cc(N2C(=O)C[C@@H]3CN(Cc4ccc(CNC(=O)/C=C/CN(C)C)cc4)c4c(C)cccc4N(C)C(=O)[C@H]32)n1 [Example 177, (E)-N-(4-(((3aR, 11aS)-6,10-dimeth-yl-1-(6-methyl-4-(trifluoromethyl)-pyridin-2-yl)-2,11-dioxo-1,2,3,3a,4, 10,11,11a-octa-hydro-5H-benzo[b]pyrrolo[2,3-f][1,4]diazocin-5-yl)-methyl)benzyl)-4-(dimethylamino)-but-2-enamide]
Kinact/Kl: 260000 M⁻¹ s⁻¹

C=CC(=O)N1Cc2c(CN3C[C@H]4CC(=O)N(c5cc(C(F)(F)F)cc(C)n5)[C@@H]4C(=O)N(C)c4cccc(C)c43)nn(C)c2C1 [Example 317, (3aR,11aS)-5-((5-acryloyl-1-methyl-1,4,5,6-tetrahydro-pyrrolo[3,4-c]pyr-azol-3-yl)methyl)-6,10-dimethyl-1-(6-methyl-4-(trifluoro-methyl)pyridin-2-yl)-1,3a,4,5,10,11a-hexahydro-2H-benzo[b]pyrrolo [2,3-f][1,4]diazo-cine-2,11(3H)-dione]
Kinact/Kl: 230000 M⁻¹ s⁻¹

C=CC(=O)N1C[C@@H]2CN(CCN3C[C@H]4CC(=O)N(c5cc(C(F)(F)F)cc(C)n5)[C@@H]4C(=O)N(C)c4cccc(F)c43)CCN2C(=O)[C@H]1C (single isomer, unassigned) [Example 60]
Kinact/Kl: 300000 M⁻¹ s⁻¹

C=CC(=O)N1Cc2cc(CN3C[C@H]4CC(=O)N(c5cc(C(F)(F)F)cc(C)n5)[C@@H]4C(=O)N(C)c4cccc(C)c43)cnc2[C@H]1CO (racemic) [Example 233, (3aR,11aS)-5-(((S/R)-6-acryloyl-7-(hydroxymethyl)-6,7-dihydro-5H-pyrrolo[3,4-b]pyridin-3-yl)methyl)-6,10-dimethyl-1-(6-methyl-4-(trifluoromethyl)pyridin-2-yl)-1,3a,4,5,10,11a-hexahydro-2H-benzo[b]pyrrolo[2,3-f][1,4]diazocine-2,11(3H)-dione]
Kinact/Kl: 2.99e+06 M⁻¹ s⁻¹

C=CC(=O)N1CC(N2CCC(CN3C[C@H]4CC(=O)N(c5cc(C(F)(F)F)cc(C)n5)[C@@H]4C(=O)N(C)c4cccc(Cl)c43)CC2)C1 [Example 92, (3aR,11aS)-5-((1-(1-acryloylazetidin-3-yl)piperidin-4-yl)methyl)-6-chloro-10-methyl-1-(6-methyl-4-(trifluoromethyl)pyridin-2-yl)-1,3a,4,5,10,11a-hexahydro-2H-benzo[b]pyrrolo[2,3-f][1,4]diazocine-2,11(3H)-dione]
Kinact/Kl: 2.56e+06 M⁻¹ s⁻¹

C=CC(=O)N1C[C@H]2CN(CCN3C[C@H]4CC(=O)N(c5cc(C(F)(F)F)cc(C)n5)[C@@H]4C(=O)N(C)c4cccc(F)c43)CCN2[C@@H](C)C1 [Example 63b, (3aR,11aS)-5-(2-((6S/R,9aR/S)-8-acryloyl-6-methyloctahydro-2H-pyrazino[1,2-a]pyrazin-2-yl)ethyl)-6-fluoro-10-methyl-1-(6-methyl-4-(trifluoromethyl)pyridin-2-yl)-1,3a,4,5,10,11a-hexahydro-2H-benzo[b]pyrrolo[2,3-f][1,4]diazocine-2,11(3H)-dione]
Kinact/Kl: 190000 M⁻¹ s⁻¹

C=CC(=O)N1Cc2ccc(CN3C[C@H]4CC(=O)N(c5cc(C(F)(F)F)cc(C)n5)[C@@H]4C(=O)N(C)c4cccc(Cl)c43)cc2C1CC#N (single isomer, unassigned) [Example 288a]
Kinact/Kl: 630000 M⁻¹ s⁻¹

C=CC(=O)N1CC(N(C)C[C@H](O)CN2C[C@H]3CC(=O)N(c4cc(C(F)(F)F)cc(C)n4)[C@@H]3C(=O)N(C)c3cccc(Cl)c32)C1 (racemic) [Example 68, (3aR,11aS)-5-((S/R)-3-((1-acryloylazetidin-3-yl)(methyl)amino)-2-hydroxypropyl)-6-chloro-10-methyl-1-(6-methyl-4-(trifluoromethyl)pyridin-2-yl)-1,3a,4,5,10,11a-hexahydro-2H-benzo[b]pyrrolo[2,3-f][1,4]diazocine-2,11(3H)-dione]
Kinact/Kl: 660000 M⁻¹ s⁻¹

C=CC(=O)N1CC(N2CCO[C@H]3CN(CCN4C[C@H]5CC(=O)N(c6cc(C(F)(F)F)cc(C)n6)[C@@H]5C(=O)N(C)c5cccc(F)c54)C[C@@H]32)C1 (single isomer, unassigned) [Example 22a]
Kinact/Kl: 170000 M⁻¹ s⁻¹

C=CC(=O)N1CC2(CN(CCN3C[C@H]4CC(=O)N(c5cc(C(F)(F)F)cc(C)n5)[C@@H]4C(=O)N(C)c4cccc(F)c43)C[C@H](C)N2)C1 [Example 32, (3aR,11aS)-5-(2-((S)-2-acryloyl-6-methyl-2,5,8-triazaspiro[3.5]nonan-8-yl)ethyl)-6-fluoro-10-methyl-1-(6-methyl-4-(trifluoromethyl)pyridin-2-yl)-1,3a,4,5,10,11a-hexahydro-2H-benzo[b] pyrrolo[2,3-f][1,4] diazocine-2,11(3H)-dione]
Kinact/Kl: 420000 M⁻¹ s⁻¹

C=CC(=O)N1CC(N2CC[C@H](CCN3C[C@H]4CC(=O)N(c5cc(C(F)(F)F)cc(C)n5)[C@@H]4C(=O)N(C)c4cccc(Cl)c43)C2)C1 [Example 221, (3aR,11aS)-5-(2-((R)-1-(1-acryloylazetidin-3-yl)pyrrolidin-3-yl)ethyl)-6-chloro-10-methyl-1-(6-methyl-4-(trifluoromethyl)pyridin-2-yl)-1,3a,4,5,10,11a-hexahydro-2H-benzo[b] pyrrolo[2,3-f] [1,4]diazocine-2,11(3H)-dione]
Kinact/Kl: 3.03e+06 M⁻¹ s⁻¹

C=CC(=O)N1CCn2cc(CN3C[C@H]4CC(=O)N(c5cc(C(F)(F)F)cc(C)n5)[C@@H]4C(=O)N(C)c4cccc(F)c43)nc2C1 [Example 132, (3aR,11aS)-5-((7-acryloyl-5,6,7,8-tetrahydroimidazo[1,2-a]pyrazin-2-yl)methyl)-6-fluoro-10-methyl-1-(6-methyl-4-(trifluoromethyl)pyridin-2-yl)-1,3a,4,5,10,11a-hexahydro-2H-benzo[b]pyrrolo[2,3-f][1,4]diazocine-2,11(3H)-dione]
Kinact/Kl: 1.86e+06 M⁻¹ s⁻¹

C=CC(=O)N1CC(N2CC[C@H](CN3C[C@H]4CC(=O)N(c5cc(C(F)(F)F)cc(C)n5)[C@@H]4C(=O)N(C)c4cccc(F)c43)C2)C1 [Example 213, (3aR,11aS)-5-(((S)-1-(1-acryloylazetidin-3-yl)pyrrolidin-3-yl)methyl)-6-fluoro-10-methyl-1-(6-methyl-4-(trifluoromethyl)pyridin-2-yl)-1,3a,4,5,10,11a-hexahydro-2H-benzo[b]pyrrolo [2,3-f][1,4] diazocine-2,11(3H)-dione]
Kinact/Kl: 1.08e+06 M⁻¹ s⁻¹
